Results taken from PMC6207618, “The GbsR Family of Transcriptional Regulators: Functional Characterization of the OpuAR Repressor” (Frontiers in Microbiology, 2018).
Read-outs that look alike come from different tables or passages of the source.

Legend:
OpuAR = OpuAR (Bacillus infantis, UniProt U5LJR5); assay: Intrinsic tryptophan fluorescence ligand binding, purified OpuAR (wild type)
Experimental: Overproduction of the OpuAR repressor protein and its mutant derivatives was carried out in the E. coli B strain BL21 harboring plasmid pMP_AR1, a derivative of the expression vector pASK-IBA3plus (IBA, Göttingen, Germany) (Supplementary Table S3). […] De-repression of P-tet promoter activity is achieved by adding the synthetic inducer AHT to the growth medium. Cultures of the E. coli B. strain BL21 (pMP_AR1) were inoculated (to a OD578 of 0.1) from pre-cultures prepared in MMA ([Miller, 1972]) supplemented with 0.5% glucose (wt/vol) as the carbon source, 0.5% casamino acids (wt/vol), 1 mg l^-1 thiamine, and 1 mM MgSO4. The cultures also contained ampicillin (100 μg ml^-1) to select for the presence of plasmid pMP_AR1 (or its mutant derivatives) and they were grown at 37°C. When the main cultures reached an OD578 of 0.5, enhanced expression of the opuAR gene from P-tet was induced by the addition of AHT to a final concentration of 0.2-μg ml^-1. Cells were grown for an additional 2 h, before they were harvested by centrifugation (at 4°C at 4,800 × g for 20 min). […]
(§1) The dissociation constants of OpuAR for choline and glycine betaine were determined by intrinsic tryptophan fluorescence spectroscopy as described previously using a Carry Eclips fluorescence spectrometer (Varian, Surry, United Kingdom) ([Pittelkow et al., 2011]; [Nau-Wagner et al., 2012]).

OpuAR N^96F = OpuAR N^96F (Bacillus infantis, UniProt U5LJR5, N96F); assay: biochemical; assay type: binding
Description: (§2) The coding region of opuAR was amplified from chromosomal DNA of B. infantis NRRL B-14911 ([Massilamany et al., 2016]) using primers opuAR fwd and opuAR rev (Supplementary Table S2) harboring in their 5′-regions recognition sites for the restriction enzyme BsaI. The resulting PCR DNA fragment was then cut with BsaI and cloned into the expression vector pASK-IBA3plus (IBA, Göttingen, Germany) that had been linearized with BsaI; the obtained plasmids were named pMP_AR1 (Supplementary Table S3). Mutant derivatives of the opuAR gene were obtained using the Q5 Site-Directed Mutagenesis Kit (New England BioLabs, Ipswich, MA, United States) and a set of customized mutagenic primers (Supplementary Table S2). The Sanger sequencing method was used to verify the DNA sequence of the chromosomal insert of the parental opuAR^+ overexpression plasmid pMP_AR1 and of its derivatives carrying mutant opuAR genes. DNA sequencing was conducted by Microsynth (Lindau, Germany).
(§3) Overproduction of the OpuAR repressor protein and its mutant derivatives was carried out in the E. coli B strain BL21 harboring plasmid pMP_AR1, a derivative of the expression vector pASK-IBA3plus (IBA, Göttingen, Germany) (Supplementary Table S3). […] De-repression of P-tet promoter activity is achieved by adding the synthetic inducer AHT to the growth medium. Cultures of the E. coli B. strain BL21 (pMP_AR1) were inoculated (to a OD578 of 0.1) from pre-cultures prepared in MMA ([Miller, 1972]) supplemented with 0.5% glucose (wt/vol) as the carbon source, 0.5% casamino acids (wt/vol), 1 mg l^-1 thiamine, and 1 mM MgSO4. The cultures also contained ampicillin (100 μg ml^-1) to select for the presence of plasmid pMP_AR1 (or its mutant derivatives) and they were grown at 37°C. When the main cultures reached an OD578 of 0.5, enhanced expression of the opuAR gene from P-tet was induced by the addition of AHT to a final concentration of 0.2-μg ml^-1. Cells were grown for an additional 2 h, before they were harvested by centrifugation (at 4°C at 4,800 × g for 20 min). The cell pellets were re-suspended in lysis buffer [100 mM Tris-HCl (pH 7.5), 2.5% glycerol, 2 mM dithiothreitol, 0.4 mM EDTA, 0.5 mM phenylmethylsulfonyl fluoride (PMSF), 0.5 mM benzamidine] and the cells were then disrupted by passing them through a French pressure cell as detailed previously ([Nau-Wagner et al., 2012]). Cleared cell lysates were prepared by ultra-centrifugation (at 4°C at 100,000 × g for 35 min) before the OpuAR-Strep-tag II recombinant protein was purified by affinity chromatography ([Nau-Wagner et al., 2012]) on streptactin affinity resin according to the manufacturers specifications (IBA, Göttingen, Germany). Mutant derivatives of the OpuAR protein were overproduced and purified as described above for the wild-type protein.
as §1

OpuAR R^100F = OpuAR R^100F (Bacillus infantis, UniProt U5LJR5, R100F); assay: biochemical; assay type: binding
Description: as §2, §3, §1

OpuAR W^93F = OpuAR W^93F (Bacillus infantis, UniProt U5LJR5, W93F); assay: biochemical; assay type: binding
Description: as §2, §3, §1

OpuAR Y^94F = OpuAR Y^94F (Bacillus infantis, UniProt U5LJR5, Y94F); assay: biochemical; assay type: binding
Description: as §2, §3, §1

OpuAR Y^94F/R^100F = OpuAR Y^94F/R^100F (Bacillus infantis, UniProt U5LJR5, R100F/Y94F); assay: biochemical; assay type: binding; settings: for Improvement of binding (Kd) relative to wild-type OpuAR: OpuAR double variant Y94F/R100F vs wild type
Description: as §2, §3, §1

B. infantis NRRL B-14911 = assay: Growth of B. infantis with glycine betaine as sole carbon source; assay type: cell-based, Bacillus infantis; settings: basal medium, 33.24 mM as sole carbon source, 46 h, 37°C
Experimental: Supplementary Figure S7 │B. infantis cannot use glycine betaine as carbon source.
Cultures of B. infantis NRRL B-14911were grown in basal medium supplemented with either glucose (27.7 mM final concentration) or glycine betaine (33.24 mM final concentration) as the sole carbon source. Growth yields were measured after 46 hours of incubation at 37 °C.
Cultures without the addition of a carbon source served as control.
(1 picture or pasted object on this page, not shown here)

B. subtilis GbsR protein = system: B. subtilis GbsR protein; set-up: method as in Nau-Wagner et al., 2012; settings: purified B. subtilis GbsR, ref Nau-Wagner et al., 2012, cited from earlier work
[1] = system: opuAA-treA reporter activity; assay: opuAA-treA reporter fusion TreA enzyme activity assay; assay type: cell-based, Bacillus subtilis; settings: strain STHB10, SMM with 1.2 M NaCl, dose-response 5 to 300 μM

Chain of OpuAR Y^94F/R^100F (U5LJR5 entry or part of it Y94F/R100F): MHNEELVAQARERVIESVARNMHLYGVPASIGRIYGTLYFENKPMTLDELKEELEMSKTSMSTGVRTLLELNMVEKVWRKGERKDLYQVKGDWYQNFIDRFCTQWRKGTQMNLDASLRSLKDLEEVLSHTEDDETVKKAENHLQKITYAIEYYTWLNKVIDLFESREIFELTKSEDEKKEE
Chain of OpuAR R^100F (U5LJR5 entry or part of it R100F): as the sequence (U5LJR5 entry or part of it Y94F/R100F) above
Chain of OpuAR N^96F (U5LJR5 entry or part of it N96F): as the sequence (U5LJR5 entry or part of it Y94F/R100F) above
Chain of OpuAR W^93F (U5LJR5 entry or part of it W93F): as the sequence (U5LJR5 entry or part of it Y94F/R100F) above
Chain of OpuAR (U5LJR5 entry or part of it): as the sequence (U5LJR5 entry or part of it Y94F/R100F) above
Chain of OpuAR Y^94F (U5LJR5 entry or part of it Y94F): as the sequence (U5LJR5 entry or part of it Y94F/R100F) above

| SMILES | Kd (OpuAR; purified OpuAR-Strep-tag II wild type, 5 μM protein, read-out: Kd) | Kd (OpuAR N^96F; OpuAR variant N96F, read-out: Kd) | Kd (OpuAR R^100F; OpuAR variant R100F, read-out: Kd) | Kd (OpuAR W^93F; OpuAR variant W93F, read-out: Kd) | Kd (OpuAR Y^94F; OpuAR variant Y94F, read-out: Kd) | Improvement of binding (Kd) relative to wild-type OpuAR (OpuAR Y^94F/R^100F) | Kd (OpuAR Y^94F/R^100F; OpuAR double variant Y94F/R100F, read-out: Kd) | Use as carbon source / nutrient (growth yield) (B. infantis NRRL B-14911) | Binding by GbsR (B. subtilis GbsR protein) | Concentration in growth medium triggering a noticeable increase in transcriptional activity [1] | Concentration sufficient to fully induce expression of the reporter fusion [1] | Kd (OpuAR) | Kd (OpuAR N^96F) | Kd (OpuAR R^100F) | Kd (OpuAR W^93F) | Kd (OpuAR Y^94F) | Kd (OpuAR Y^94F/R^100F) | Kd (B. subtilis GbsR protein; intrinsic Trp-fluorescence) |
| --- | --- | --- | --- | --- | --- | --- | --- | --- | --- | --- | --- | --- | --- | --- | --- | --- | --- | --- |
| C[N+](C)(C)CC(=O)[O-] [glycine betaine] | 301 ± 24 µM | 254 ± 39 µM | 303 ± 40 µM | 224 ± 24 µM | 293 ± 37 µM | fourfold | 70 ± 12 µM | cannot use | does not bind | 5 µM | 75 µM |  |  |  |  |  |  |  |
| C[N+](C)(C)CCO [choline] |  |  |  |  |  | about threefold |  |  |  |  |  | 193 ± 40 µM | 262 ± 34 µM | 100 ± 15 µM | 210 ± 33 µM | 240 ± 33 µM | 61 ± 11 µM | 165 ± 15 µM |
